According to article PMC4387272, “Pharmacokinetic, pharmacodynamic and biomarker evaluation of transforming growth factor-β receptor I kinase inhibitor, galunisertib, in phase 1 study in patients with advanced cancer” (Investigational new drugs, 2014):
Where two headings read alike, the source gives them in different places.

Experiments:
[1] = Safety and blood counts in first-in-human dose study; type: in vivo
Description: (§1) An amendment was introduced to assess T cell subsets in Part B and Part C.

[2] = set-up: method as in PMID 24868575; conditions: population PK model, Cohorts 1 through 5; cited from earlier work
[3] = test system: T cell subsets (CD3+, CD8+, CD4+, CD4+CD25+CD127-/LOFoxp3+); experiment: Flow cytometry for T cell subsets; type: in vivo, Human
Description: Blood samples were obtained and prepared for flow cytometry assessment following the instructions of Quintiles Laboratories (Durham, NC). After red blood cell lysis, cells were stained for CD3^+, CD8^+, CD4^+ and CD4^+CD25^+ CD127^−/LOFoxp3^+ and events were collected by flow cytometer per standard Quintiles procedures. All results were reported as absolute cell counts and as percentage of lymphocytes.
as §1

[4] = test system: pSMAD2 in peripheral blood mononuclear cells (PBMCs); experiment: pSMAD2 ELISA in peripheral blood mononuclear cells of treated patients; type: in vivo, Human; conditions: for inhibition at 160 mg: Homo sapiens, PBMC, 160 mg/day cohort (Part A)
Description: pSMAD2 in peripheral blood mononuclear cells (PBMCs) were assessed by a specific ELISA as previously described, in which a rabbit polyclonal antibody recognizing pSMAD2 was used. Total SMAD2 was also assessed and used to normalize the expression of pSMAD2.
A power model was fitted to PK parameter estimates Cmax and AUC(0–24) to assess the extent of dose proportionality. Clinical benefit in this study has been defined as a patient with either a complete response (CR), partial response (PR), and stable disease (SD) ≥6 cycles. MAIP results from plasma samples taken at baseline were compared between patients completing >6 cycles and ≤6 cycles using ANOVA. The analysis included controlling the false discovery rate to 30 % using the Benjamini-Hochberg method. Boxplots showing the distributions at baseline of the potentially prognostic markers are provided. Observed TGF-β-stimulated pSMAD2 (pSMAD2^+) in PBMCs was normalized by TGF-β-stimulated tSMAD2 [(tSMAD2^+) ^0.6[9, 10]] prior to determining the minimum normalized pSMAD2^+ and calculating percentage inhibition post-baseline for each patient. Baseline and minimum post-baseline values for each patient together with maximum percentage inhibition are presented on a line and scatter plot for each patient in Cohort 3 and summary statistics by time point provided from a standard mixed effects regression model, fitting log normalized pSMAD2^+ to the fixed effects of log baseline normalized pSMAD2^+, nominal time point, dose and their interaction and patient as a random effect.
Using an ELISA to detect changes of pSMAD2 in isolated PBMCs as a PD response marker, we observed changes after galunisertib administration. […] In 11 of the 14 patients, pSMAD2 inhibition was assessed at the observed maximum concentration for galunisertib about 2–6 h after administration on Day 14 of the first cycle. In 6 of the 11 patients, pSMAD2 levels were reduced in relationship to drug concentration, while in the remaining 5 patients, there was no relationship at the expected Cmax (Fig. 2a). […] Once the drug was stopped after 14 days of administration, pSMAD2 changes were assessed for the next 3 days in 2 patients, one in Cohort 1 and 1 in Cohort 3 (Fig. 2c and d). The pSMAD2 inhibition was still present although drug levels were low or undetectable. The mean of the observed percentage inhibition of normalized pSMAD2^+ from Cycle 1 Day 1 and Day 12 for Cohort 3 together with the estimated means from the model are provided in Table 2.

[5] = patients with advanced cancer, first-in-human dose study

Cc1cccc(-c2nn3c(c2-c2ccnc4ccc(C(N)=O)cc24)CCC3)n1 [galunisertib]
lymphocyte counts ([1]; Part B, combination of galunisertib and lomustine, some patients): reduction in lymphocyte counts
bone marrow toxicity (neutrophils, platelets, lymphocyte counts) ([1]; Part C, monotherapy 300 mg/day, patients receiving more than 2 cycles): no comparable bone marrow toxicity
cardiac adverse events [1, 5]: no cardiac adverse events
toxicity / safety profile [1, 5]: favorable safety profile
toxicity / safety profile ([1]; patients with advanced cancer, first-in-human dose study, listed as Galunisertib): favorable toxicity profile
mean population CL [2]: 38 L/h
steady state volume of distribution (Vss) [2]: 210 L
lymphocyte counts and the respective subsets ([3]; Part B, in combination with lomustine): reduced
counts of CD3+, CD8+, CD4+ and CD4+CD25+CD127−/LOFoxp3+ cells ([3]; Part C, monotherapy): either stabilized or increased
patients with a reduction in pSMAD2 in PBMCs ([4]; Cohort 3 (160 mg/day), 9 of 14 patients, first 14 days of treatment): 64%
mean percentage inhibition of pSMAD2 ([4]; Cohort 3, end of 14 days of treatment, PBMCs): approximately 40%
patients with pSMAD2 levels reduced in relationship to drug concentration ([4]; Cohort 3, of 11 patients assessed about 2–6 h after administration on Day 14 of first cycle): 6 patients
inhibition at 160 mg ([4]; Day 1, 0.5 h, PBMCs, mixed-effects model, read-out: Fitted Percentage Inhibition of Normalized pSMAD2): 27%
inhibition at 160 mg ([4]; Day 1, 0.5 h, PBMCs, read-out: Observed Percentage Inhibition of Normalized pSMAD2): 26%
inhibition at 160 mg ([4]; Day 1, 4 h, PBMCs, mixed-effects model, read-out: Fitted Percentage Inhibition of Normalized pSMAD2): 5%
inhibition at 160 mg ([4]; Day 1, 4 h, PBMCs, read-out: Observed Percentage Inhibition of Normalized pSMAD2): 5%
inhibition at 160 mg ([4]; Day 1, 6 h, PBMCs, mixed-effects model, read-out: Fitted Percentage Inhibition of Normalized pSMAD2): -10%
inhibition at 160 mg ([4]; Day 1, 6 h, PBMCs, read-out: Observed Percentage Inhibition of Normalized pSMAD2): -10%
inhibition at 160 mg ([4]; Day 12 or 15 post dose (2, 3, 4, 6 h), PBMCs, mixed-effects model, read-out: Fitted Percentage Inhibition of Normalized pSMAD2): 34%
inhibition at 160 mg ([4]; Day 12 or 15 post dose (2, 3, 4, 6 h), PBMCs, read-out: Observed Percentage Inhibition of Normalized pSMAD2): 39%
pSMAD2 inhibition after drug was stopped ([4]; next 3 days after 14 days of administration, 2 patients, drug levels low or undetectable): still present
